According to PubChem BioAssay AID1963858 (Molecular Pharmacology Branch, DTP, NCI, 2024):

Tested on: HOP-62 multicell spheroids with HUVEC/MSC, viability
Test: Anticancer human tumor HOP-62 cell line growth inhibition [KRAS2];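 note: viability read after a week of compound exposure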;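 for viability, T/C: 100% = DMSO vehicle-treated spheroids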
Details: for IC50: curve of first compound; for viability, T/C: stronger effect = lower value
Outline: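 KRAS-mutant tumor cells were grown as spheroids with HUVEC endothelial cells and human MSCs as stroma. Targeted agents were tested alone and with KRAS pathway inhibitors. Doses started at or near clinical Cmax, or 10 microM, descending half-log.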

[1] = second compound 0.1 µM, first compound 0.0316 µM
[2] = second compound 0.1 µM, first compound 0.1 µM
[3] = second compound 0.1 µM, first compound 0.316 µM
[4] = second compound 0.1 µM, first compound 1 µM
[5] = second compound 0.1 µM, first compound 3.16 µM
[6] = second compound 0.1 µM, first compound 10 µM
[7] = second compound 0.316 µM, first compound 0.0316 µM
[8] = second compound 0.316 µM, first compound 0.1 µM
[9] = second compound 0.316 µM, first compound 0.316 µM
[10] = second compound 0.316 µM, first compound 1 µM
[11] = second compound 0.316 µM, first compound 3.16 µM
[12] = second compound 0.316 µM, first compound 10 µM
[13] = second compound 1 µM, first compound 0.0316 µM
[14] = second compound 1 µM, first compound 0.1 µM
[15] = second compound 1 µM, first compound 0.316 µM
[16] = second compound 1 µM, first compound 1 µM
[17] = second compound 1 µM, first compound 3.16 µM
[18] = second compound 1 µM, first compound 10 µM
[19] = second compound 3.16 µM, first compound 0.0316 µM
[20] = second compound 3.16 µM, first compound 0.1 µM
[21] = second compound 3.16 µM, first compound 0.316 µM
[22] = second compound 3.16 µM, first compound 1 µM
[23] = second compound 3.16 µM, first compound 3.16 µM
[24] = second compound 3.16 µM, first compound 10 µM
[25] = second compound 10 µM, first compound 0.0316 µM
[26] = second compound 10 µM, first compound 0.1 µM
[27] = second compound 10 µM, first compound 0.316 µM
[28] = second compound 10 µM, first compound 1 µM
[29] = second compound 10 µM, first compound 3.16 µM
[30] = second compound 10 µM, first compound 10 µM
[31] = second compound 0.1 µM, first compound 0.01 µM
[32] = second compound 0.316 µM, first compound 0.01 µM
[33] = second compound 1 µM, first compound 0.01 µM
[34] = second compound 3.16 µM, first compound 0.01 µM
[35] = second compound 10 µM, first compound 0.01 µM

| Structure (SMILES) | IC50 (second compound 0.1 µM) | IC50 (second compound 0.316 µM) | IC50 (second compound 1 µM) | IC50 (second compound 3.16 µM) | IC50 (second compound 10 µM) | viability, T/C [1] | viability, T/C [2] | viability, T/C [3] | viability, T/C [4] | viability, T/C [7] | viability, T/C [8] | viability, T/C [9] | viability, T/C [10] | viability, T/C [13] | viability, T/C [14] | viability, T/C [15] | viability, T/C [16] | viability, T/C [19] | viability, T/C [20] | viability, T/C [21] | other results |
| --- | --- | --- | --- | --- | --- | --- | --- | --- | --- | --- | --- | --- | --- | --- | --- | --- | --- | --- | --- | --- | --- |
| CC(C)NCC(C(=O)N1CCN(c2ncnc3c2C(C)CC3O)CC1)c1ccc(Cl)cc1 (stereo not given) + C=CC(=O)N1CCN(c2nc(=O)n(-c3c(C)ccnc3C(C)C)c3nc(-c4c(O)cccc4F)c(F)cc23)C(C)C1 | 69.2 nM | 70 nM | 88.9 nM | 110 nM | < 31.6 nM | 60.9% | 45.3% | 22.2% | 12.4% | 53.8% | 49.1% | 28.2% | 12.9% | 57.2% | 49.6% | 27.2% | 11.8% | 55.7% | 51% | 36.3% | viability, T/C [5]: 7.1%; viability, T/C [6]: 5.4%; viability, T/C [11]: 6.09%; viability, T/C [12]: 5.39%; viability, T/C [17]: 6.8%; viability, T/C [18]: 5.57%; viability, T/C [22]: 15.1%; viability, T/C [23]: 7.34%; viability, T/C [24]: 4.5%; viability, T/C [25]: 43.3%; viability, T/C [26]: 28.1%; viability, T/C [27]: 19.5%; viability, T/C [28]: 12.8%; viability, T/C [29]: 8.3%; viability, T/C [30]: 5.28% |
| CC1COCCN1c1cc(-c2ccnn2C)c2ccnc(-c3ccn[nH]3)c2n1 (stereo not given) + C=CC(=O)N1CCN(c2nc(=O)n(-c3c(C)ccnc3C(C)C)c3nc(-c4c(O)cccc4F)c(F)cc23)C(C)C1 | 27.2 nM | 33.2 nM | 23.3 nM | 12 nM | < 10 nM | 48.3% | 15.2% | 11.7% | 11.4% | 51.5% | 19.5% | 12.7% | 10.7% | 44.2% | 19.3% | 11.1% | 10.5% | 33.5% | 15.5% | 11.7% | viability, T/C [31]: 61.3%; viability, T/C [5]: 8.87%; viability, T/C [32]: 66.7%; viability, T/C [11]: 9.1%; viability, T/C [33]: 65.9%; viability, T/C [17]: 10.7%; viability, T/C [34]: 53.1%; viability, T/C [22]: 13.3%; viability, T/C [23]: 12.1%; viability, T/C [35]: 33%; viability, T/C [25]: 23.9%; viability, T/C [26]: 18.1%; viability, T/C [27]: 15.5%; viability, T/C [28]: 13.8%; viability, T/C [29]: 11.3% |
| CCN1CCN(Cc2ccc(Nc3ncc(F)c(-c4cc(F)c5nc(C)n(C(C)C)c5c4)n3)nc2)CC1 + C=CC(=O)N1CCN(c2nc(=O)n(-c3c(C)ccnc3C(C)C)c3nc(-c4c(O)cccc4F)c(F)cc23)C(C)C1 | 150 nM | 39.5 nM | 501 nM | 543 nM | < 3.16 nM | 49.4% | 50.5% | 51.3% | 40.5% | 50.6% | 48% | 49.8% | 44.3% | 51.7% | 60% | 57.1% | 39.3% | 57.4% | 53.5% | 63.4% | viability, T/C (second compound 0.1 µM, first compound 0.00316 µM): 58%; viability, T/C [31]: 53.3%; viability, T/C (second compound 0.316 µM, first compound 0.00316 µM): 72.5%; viability, T/C [32]: 69.4%; viability, T/C (second compound 1 µM, first compound 0.00316 µM): 64.9%; viability, T/C [33]: 59.2%; viability, T/C (second compound 3.16 µM, first compound 0.00316 µM): 70.4%; viability, T/C [34]: 63.6%; viability, T/C [22]: 36.9%; viability, T/C (second compound 10 µM, first compound 0.00316 µM): 51.9%; viability, T/C [35]: 41.6%; viability, T/C [25]: 42.1%; viability, T/C [26]: 39.6%; viability, T/C [27]: 38.2%; viability, T/C [28]: 22.7% |
| CCNC(=O)CC1N=C(c2ccc(Cl)cc2)c2cc(OC)ccc2-n2c(C)nnc21 (stereo not given) + C=CC(=O)N1CCN(c2nc(=O)n(-c3c(C)ccnc3C(C)C)c3nc(-c4c(O)cccc4F)c(F)cc23)C(C)C1 | 74.2 nM | 72.7 nM | 66.1 nM | 129 nM | < 31.6 nM | 67.2% | 42.7% | 33.2% | 22.6% | 71.2% | 41.1% | 30.1% | 24.9% | 60.6% | 45% | 32.5% | 24.6% | 71.4% | 53.6% | 36.8% | viability, T/C [5]: 19.3%; viability, T/C [6]: 19.4%; viability, T/C [11]: 21.9%; viability, T/C [12]: 20.4%; viability, T/C [17]: 23%; viability, T/C [18]: 19.8%; viability, T/C [22]: 23.3%; viability, T/C [23]: 23.1%; viability, T/C [24]: 19.2%; viability, T/C [25]: 39.2%; viability, T/C [26]: 36.9%; viability, T/C [27]: 25.3%; viability, T/C [28]: 22.2%; viability, T/C [29]: 17.1%; viability, T/C [30]: 17.4% |
